Experimental findings from ChEMBL document CHEMBL4346741, “Synthesis, pharmacological evaluation, and mechanistic study of adefovir mixed phosphonate derivatives bearing cholic acid and l-amino acid moieties for the treatment of HBV” (Bioorg Med Chem, 2019) are described below.

The subject of one series is HepG2 2.2.15. Briefly: Cytotoxicity against human HepG2.2.15 cells assessed as reduction in cell viability incubated for 12 hrs followed by replacement of fresh medium containing compound and measured after 2 days by CCK-8 assay. The format is functional.
Series [1] can be described thus: Selectivity index, ratio of CC50 for cytotoxicity against human HepG2.2.15 cells to EC50 for HBV infected in human HepG2.2.15 cells. The format is toxicity, cell-based. Particulars: read-out: Ratio CC50/EC50.
The next series deals with Hepatitis B virus. The series can be described thus: Antiviral activity against Hepatitis B virus infected in human HepG2.2.15 cells assessed as inhibition of viral DNA synthesis incubated for 2 days followed by replacement of fresh medium containing compound and measured at day 10 by RT-PCR analysis. The format is functional, organism-based.
Substrate in series [2]: [H][C@@]12C[C@H](O)CC[C@]1(C)[C@@]1([H])CC[C@@]3(C)[C@@]([H])(CC[C@]3([H])[C@H](C)CCC(=O)OCCCOP(=O)(COCCn3cnc4c(N)ncnc43)OCCCOC(=O)[C@@H](C)N)[C@]1([H])[C@@H](O)C2
Briefly: (§1) Substrate activity at human NTCP expressed in HEK293 cells harboring pEGFP assessed as Km for transporter-mediated drug uptake measured for 30 mins in presence of sodium chloride by UPLC-MS/MS analysis. The format is cell-based.

Substrate in series [3]: [H][C@@]12C[C@H](O)CC[C@]1(C)[C@@]1([H])CC[C@@]3(C)[C@@]([H])(CC[C@]3([H])[C@H](C)CCC(=O)OCCCOP(=O)(COCCn3cnc4c(N)ncnc43)OCCCOC(=O)[C@H](N)[C@@H](C)CC)[C@]1([H])[C@@H](O)C2
The series is described as §1. The format is cell-based.

Substrate in series [4]: [H][C@@]12C[C@H](O)CC[C@]1(C)[C@@]1([H])CC[C@@]3(C)[C@@]([H])(CC[C@]3([H])[C@H](C)CCC(=O)OCCCOP(=O)(COCCn3cnc4c(N)ncnc43)OCCCOC(=O)[C@H](N)C(C)C)[C@]1([H])[C@@H](O)C2
Described as §1. The format is cell-based.

Substrate in series [5]: [H][C@@]12C[C@H](O)CC[C@]1(C)[C@@]1([H])CC[C@@]3(C)[C@@]([H])(CC[C@]3([H])[C@H](C)CCC(=O)OCCCOP(=O)(COCCn3cnc4c(N)ncnc43)OCCCOC(=O)[C@H](N)CC(C)C)[C@]1([H])[C@@H](O)C2
The description is as §1. The format is cell-based.

What is called CC50 is the concentration that lowers cell viability or growth by half. In general, EC50 refers to the concentration needed to bring the measured effect to its halfway point. On to `CC(C)C[C@H](N)C(=O)SCCCOP(=O)(COCCn1cnc2c(N)ncnc21)OCCCOC(=O)CC[C@@H](C)[C@H]1CC[C@H]2[C@@H]3[C@@H](O)C[C@@H]4C[C@H](O)CC[C@]4(C)[C@H]3CC[C@]12C` (some centres undefined), for which the CC50 in the series with HepG2 2.2.15 was determined as 2070 µM. The selectivity ratio in series [1] was 140. Moreover, in the series on Hepatitis B virus, the EC50 worked out at 14.8 µM.

On to `CC(C)[C@@H](N)C(=O)OCCCOP(=O)(COCCn1cnc2c(N)ncnc21)OCCCOC(=O)CC[C@@H](C)[C@H]1CC[C@H]2[C@@H]3CC[C@@H]4C[C@H](O)CC[C@]4(C)[C@H]3C[C@H](O)[C@]12C` (some centres undefined), for which, in the series with HepG2 2.2.15, the cytotoxic concentration (CC50) stood at 666 µM. The selectivity ratio in series [1] worked out at 59.2. Moreover, the EC50 in the series with Hepatitis B virus was 11.2 µM.

As for `CC[C@H](C)[C@@H](N)C(=O)OCCCOP(=O)(COCCn1cnc2c(N)ncnc21)OCCCOC(=O)CC[C@@H](C)[C@H]1CC[C@H]2[C@@H]3[C@@H](O)C[C@@H]4C[C@H](O)CC[C@]4(C)[C@H]3CC[C@]12C` (some centres undefined), the CC50 in the series on HepG2 2.2.15 was 378 µM. Further, the selectivity ratio in series [1] is 528. For the same molecule, in the series with Hepatitis B virus, the EC50 is 0.65 µM.

`C[C@H](CCC(=O)OCCCOP(=O)(COCCn1cnc2c(N)ncnc21)OCCCSC(=O)[C@@H](N)Cc1ccccc1)[C@H]1CC[C@H]2[C@@H]3CC[C@@H]4C[C@H](O)CC[C@]4(C)[C@H]3C[C@H](O)[C@]12C` (some centres undefined): the 50% cytotoxic concentration (CC50) with HepG2 2.2.15 was determined as 789 µM. The selectivity ratio in series [1] was determined as 41.9. Moreover, the EC50 with Hepatitis B virus came to 18.8 µM.

`CC(C)[C@H](N)C(=O)SCCCOP(=O)(COCCn1cnc2c(N)ncnc21)OCCCOC(=O)CC[C@@H](C)[C@H]1CC[C@H]2[C@@H]3CC[C@@H]4C[C@H](O)CC[C@]4(C)[C@H]3C[C@H](O)[C@]12C` (some centres undefined): in the series on HepG2 2.2.15, the 50% cytotoxic concentration (CC50) is 1020 µM. The selectivity ratio in series [1] came to 62.5. The half-maximal effective concentration (EC50) in the series on Hepatitis B virus was 16.4 µM.

`CC(C)[C@@H](N)C(=O)OCCCOP(=O)(COCCn1cnc2c(N)ncnc21)OCCCOC(=O)CC[C@@H](C)[C@H]1CC[C@H]2[C@@H]3[C@@H](O)C[C@@H]4C[C@H](O)CC[C@]4(C)[C@H]3CC[C@]12C` (some centres undefined): the 50% cytotoxic concentration (CC50) in the series with HepG2 2.2.15 amounted to 407 µM. In addition, in series [1], the selectivity ratio worked out at 122. Also, the EC50 in the series on Hepatitis B virus was 3.34 µM.

As for `CC(C)[C@H](N)C(=O)SCCCOP(=O)(COCCn1cnc2c(N)ncnc21)OCCCOC(=O)CC[C@@H](C)[C@H]1CC[C@H]2[C@@H]3[C@@H](O)C[C@@H]4C[C@H](O)CC[C@]4(C)[C@H]3CC[C@]12C` (some centres undefined), the CC50 in the series on HepG2 2.2.15 turned out to be 1840 µM. In addition, in series [1], the selectivity ratio amounted to 19. In the series with Hepatitis B virus, the EC50 is 97 µM.

Regarding `CC(C)C[C@@H](N)C(=O)OCCCOP(=O)(COCCn1cnc2c(N)ncnc21)OCCCOC(=O)CC[C@@H](C)[C@H]1CC[C@H]2[C@@H]3CC[C@@H]4C[C@H](O)CC[C@]4(C)[C@H]3C[C@H](O)[C@]12C` (some centres undefined), the 50% cytotoxic concentration (CC50) with HepG2 2.2.15 was 876 µM. For the same molecule, the selectivity ratio in series [1] came out at 89.7. Besides, the EC50 in the series with Hepatitis B virus worked out at 9.77 µM.

For the molecule `C[C@H](CCC(=O)OCCCOP(=O)(COCCn1cnc2c(N)ncnc21)OCCCSC(=O)[C@@H](N)Cc1ccccc1)[C@H]1CC[C@H]2[C@@H]3[C@@H](O)C[C@@H]4C[C@H](O)CC[C@]4(C)[C@H]3CC[C@]12C` (some centres undefined), the cytotoxic concentration (CC50) with HepG2 2.2.15 was found to be 3040 µM. For the same molecule, the selectivity ratio in series [1] came to 103. The EC50 in the series on Hepatitis B virus was found to be 29.4 µM.

With `C[C@H](CCC(=O)OCCCOP(=O)(COCCn1cnc2c(N)ncnc21)OCCCOC(=O)[C@@H](C)N)[C@H]1CC[C@H]2[C@@H]3[C@@H](O)C[C@@H]4C[C@H](O)CC[C@]4(C)[C@H]3CC[C@]12C` (some centres undefined), the 50% cytotoxic concentration (CC50) with HepG2 2.2.15 is 489 µM. Further, the selectivity ratio in series [1] was determined as 90. Also, in the series with Hepatitis B virus, the EC50 came out at 5.44 µM.

On to `CC[C@H](C)[C@@H](N)C(=O)OCCCOP(=O)(COCCn1cnc2c(N)ncnc21)OCCCOC(=O)CC[C@@H](C)[C@H]1CC[C@H]2[C@@H]3CC[C@@H]4C[C@H](O)CC[C@]4(C)[C@H]3C[C@H](O)[C@]12C` (some centres undefined), for which, in the series with HepG2 2.2.15, the CC50 was 1880 µM. The selectivity ratio in series [1] was 42.5. Also, the concentration giving a half-maximal response (EC50) with Hepatitis B virus was found to be 44.1 µM.

Consider `C[C@H](CCC(=O)OCCCOP(=O)(COCCn1cnc2c(N)ncnc21)OCCCOC(=O)[C@@H](C)N)[C@H]1CC[C@H]2[C@@H]3CC[C@@H]4C[C@H](O)CC[C@]4(C)[C@H]3C[C@H](O)[C@]12C` (some centres undefined), for which the CC50 with HepG2 2.2.15 amounted to 1050 µM. Moreover, in series [1], the selectivity ratio is 48.8. Besides, the EC50 in the series with Hepatitis B virus stood at 21.5 µM.

B1: Hepatic sodium/bile acid cotransporter (Homo sapiens) (protein)
chain: MEAHNASAPFNFTLPPNFGKRPTDLALSVILVFMLFFIMLSLGCTMEFSKIKAHLWKPKGLAIALVAQYGIMPLTAFVLGKVFRLKNIEALAILVCGCSPGGNLSNVFSLAMKGDMNLSIVMTTCSTFCALGMMPLLLYIYSRGIYDGDLKDKVPYKGIVISLVLVLIPCTIGIVLKSKRPQYMRYVIKGGMIIILLCSVAVTVLSAINVGKSIMFAMTPLLIATSSLMPFIGFLLGYVLSALFCLNGRCRRTVSMETGCQNVQLCSTILNVAFPPEVIGPLFFFPLLYMIFQLGEGLLLIAIFWCYEKFKTPKDKTKMIYTAATTEETIPGALGNGTYKGEDCSPCTA
As usually defined, the Km is the concentration of substrate that gives half-maximal velocity. As a reminder, the Vmax is the rate approached at saturating substrate. For B1, the Michaelis-Menten constant (Km) was 48.2 µM in series [2], 102 µM in series [3], 113 µM in series [4] and 45.5 µM in series [5]. Further, the maximum rate (Vmax) worked out at 8.28 µmol/min/mg in series [2], 6.86 µmol/min/mg in series [3], 7.95 µmol/min/mg in series [4] and 9.61 µmol/min/mg in series [5].
